Test results reported in the NIST ThermoML archive (doi:10.1021/je0496600).
± gives the expanded uncertainty stated by the source.

Assay: mn = molality of the nth substance listed, in mol/kg
Conditions: 101.3 kPa, Liquid; for speed of sound: Sing-around technique in a fixed-path interferometer

O=C([O-])CCC(=O)[O-].[Na+].[Na+] [disodium succinate] + O
Conditions	mass density, 298.15 K [kg/m3]	mass density, 308.15 K [kg/m3]	mass density, 318.15 K [kg/m3]	speed of sound, 298.15 K [m/s]	speed of sound, 308.15 K [m/s]	speed of sound, 318.15 K [m/s]
m1 = 0.0188	999.052 ± 0.34	996.011 ± 0.37	992.179 ± 0.37	1500.2 ± 0.98	1523.2 ± 0.99	1539.9 ± 0.99
m1 = 0.0239	999.583 ± 0.34	996.544 ± 0.36	992.703 ± 0.37	1501.1 ± 0.98	1524.1 ± 0.99	1540.6 ± 0.99
m1 = 0.0336	1000.61 ± 0.34	997.55 ± 0.35	993.703 ± 0.36	1502.7 ± 0.98	1525.6 ± 0.99	1542.1 ± 0.99
m1 = 0.0373	1001 ± 0.34	997.934 ± 0.35	994.083 ± 0.36	1503.4 ± 0.98	1526.2 ± 0.99	1542.7 ± 0.99
m1 = 0.0452	1001.82 ± 0.35	998.747 ± 0.34	994.887 ± 0.36	1504.9 ± 0.98	1527.5 ± 0.99	1544 ± 0.99
m1 = 0.0489	1002.2 ± 0.35	999.13 ± 0.35	995.266 ± 0.36	1505.4 ± 0.99	1528 ± 0.99	1544.6 ± 0.99
m1 = 0.0546	1002.79 ± 0.35	999.711 ± 0.34	995.841 ± 0.36	1506.3 ± 0.99	1528.9 ± 0.99	1545.3 ± 0.99
m1 = 0.0593	1003.28 ± 0.35	1000.19 ± 0.34	996.315 ± 0.35	1507.1 ± 0.99	1529.7 ± 0.99	1546.6 ± 0.99
m1 = 0.068	1004.18 ± 0.36	1001.08 ± 0.34	997.197 ± 0.35	1509 ± 0.99	1531.7 ± 0.99	1547.5 ± 0.99
m1 = 0.0763	1005.05 ± 0.36	1001.94 ± 0.35	998.046 ± 0.35	1510.5 ± 0.99	1532.4 ± 0.99	1548.5 ± 0.99
m1 = 0.0864	1006.09 ± 0.36	1002.96 ± 0.35	999.064 ± 0.34	1511.7 ± 0.99	1533.9 ± 0.99	1549.9 ± 0.99
m1 = 0.0935	1006.82 ± 0.37	1003.69 ± 0.35	999.785 ± 0.34	1512.8 ± 0.99	1535.1 ± 0.99	1551.2 ± 1
m1 = 0.1221	1009.74 ± 0.38	1006.56 ± 0.36	1002.63 ± 0.35	1517.5 ± 0.99	1539.5 ± 0.99	1555.2 ± 1
m1 = 0.2589	1023.44 ± 0.43	1020.07 ± 0.42	1016.03 ± 0.4	1539.8 ± 1	1560.3 ± 1	1575.1 ± 1
m1 = 0.3292	1030.32 ± 0.46	1026.85 ± 0.45	1022.73 ± 0.43	1551 ± 1	1570.8 ± 1	1585.2 ± 1
m1 = 0.4019	1037.3 ± 0.49	1033.75 ± 0.47	1029.56 ± 0.46	1562.4 ± 1	1581.6 ± 1	1595.8 ± 1
m1 = 0.4364	1040.57 ± 0.5	1036.98 ± 0.49	1032.77 ± 0.47	1567.8 ± 1	1586.6 ± 1	1600.7 ± 1
m1 = 0.5252	1048.89 ± 0.53	1045.2 ± 0.52	1040.92 ± 0.5	1582 ± 1	1599.5 ± 1	1612 ± 1
m1 = 0.6535	1060.59 ± 0.58	1056.74 ± 0.56	1052.37 ± 0.55	1601.2 ± 1	1617.8 ± 1	1629.2 ± 1
m1 = 0.7422	1068.47 ± 0.61	1064.55 ± 0.6	1060.13 ± 0.58	1615.1 ± 1	1630.5 ± 1	1641 ± 1.1
m1 = 0.9099	1083.03 ± 0.67	1078.94 ± 0.66	1074.41 ± 0.64	1639.8 ± 1.1	1653.3 ± 1.1	1662.7 ± 1.1
m1 = 1.168	1104.44 ± 0.76	1100.13 ± 0.74	1095.45 ± 0.72	1675.7 ± 1.1	1687.5 ± 1.1	1694.9 ± 1.1
m1 = 1.43	1125.04 ± 0.84	1120.37 ± 0.82	1115.74 ± 0.81	1711.2 ± 1.1	1720.9 ± 1.1	1726.2 ± 1.1
m1 = 1.748	1148.68 ± 0.94	1143.92 ± 0.92	1138.95 ± 0.9	1752.4 ± 1.1	1759 ± 1.1	1762.5 ± 1.1

O=C[O-].[Na+] [sodium methanoate] + O
Conditions	mass density, 298.15 K [kg/m3]	mass density, 308.15 K [kg/m3]	mass density, 318.15 K [kg/m3]	speed of sound, 298.15 K [m/s]	speed of sound, 308.15 K [m/s]	speed of sound, 318.15 K [m/s]
m1 = 0.0263	998.164 ± 0.33	995.129 ± 0.35	991.308 ± 0.36	1498.6 ± 0.98	1521.7 ± 0.99	1538.3 ± 0.99
m1 = 0.0331	998.451 ± 0.33	995.412 ± 0.35	991.587 ± 0.36	1499.1 ± 0.98	1522.1 ± 0.99	1538.8 ± 0.99
m1 = 0.0437	998.896 ± 0.33	995.851 ± 0.34	992.021 ± 0.36	1499.7 ± 0.98	1522.7 ± 0.99	1539.3 ± 0.99
m1 = 0.0497	999.147 ± 0.33	996.099 ± 0.34	992.265 ± 0.36	1500.1 ± 0.98	1523.1 ± 0.99	1539.6 ± 0.99
m1 = 0.057	999.452 ± 0.33	996.397 ± 0.34	992.559 ± 0.36	1500.6 ± 0.98	1523.5 ± 0.99	1540 ± 0.99
m1 = 0.0682	999.921 ± 0.33	996.863 ± 0.34	993.016 ± 0.35	1501.2 ± 0.98	1524.2 ± 0.99	1540.6 ± 0.99
m1 = 0.0747	1000.2 ± 0.33	997.131 ± 0.34	993.282 ± 0.35	1501.6 ± 0.98	1524.5 ± 0.99	1541 ± 0.99
m1 = 0.0811	1000.46 ± 0.33	997.398 ± 0.34	993.545 ± 0.35	1502.1 ± 0.98	1524.9 ± 0.99	1541.3 ± 0.99
m1 = 0.0909	1000.88 ± 0.33	997.799 ± 0.34	993.945 ± 0.35	1502.7 ± 0.98	1525.5 ± 0.99	1541.9 ± 0.99
m1 = 0.0975	1001.15 ± 0.33	998.074 ± 0.34	994.215 ± 0.35	1503 ± 0.98	1525.9 ± 0.99	1542.4 ± 0.99
m1 = 0.1428	1003.03 ± 0.34	999.916 ± 0.33	996.044 ± 0.34	1505.9 ± 0.99	1528.5 ± 0.99	1544.5 ± 0.99
m1 = 0.2955	1009.33 ± 0.36	1006.11 ± 0.35	1002.18 ± 0.34	1515.1 ± 0.99	1536.9 ± 0.99	1552.5 ± 1
m1 = 0.4697	1016.34 ± 0.39	1012.98 ± 0.38	1008.95 ± 0.36	1525.2 ± 0.99	1546.2 ± 1	1561.2 ± 1
m1 = 0.6887	1024.99 ± 0.43	1021.49 ± 0.41	1017.38 ± 0.4	1537.7 ± 1	1557.7 ± 1	1572.6 ± 1
m1 = 0.8366	1030.69 ± 0.45	1027.11 ± 0.44	1022.93 ± 0.42	1546 ± 1	1565.3 ± 1	1579 ± 1
m1 = 0.9653	1035.61 ± 0.47	1031.93 ± 0.46	1027.66 ± 0.44	1553.1 ± 1	1571.8 ± 1	1584.9 ± 1
m1 = 1.139	1042.15 ± 0.5	1038.38 ± 0.48	1034.04 ± 0.47	1562.4 ± 1	1580.4 ± 1	1593.2 ± 1
m1 = 1.233	1045.63 ± 0.51	1041.81 ± 0.5	1037.43 ± 0.48	1567.5 ± 1	1585 ± 1	1597.3 ± 1
m1 = 1.496	1055.23 ± 0.55	1051.27 ± 0.54	1046.79 ± 0.52	1581.2 ± 1	1597.5 ± 1	1609.2 ± 1
m1 = 2.188	1079.46 ± 0.65	1075.15 ± 0.64	1070.43 ± 0.62	1615.3 ± 1	1628.8 ± 1	1638.3 ± 1.1
m1 = 2.783	1099.17 ± 0.73	1094.61 ± 0.72	1089.57 ± 0.7	1642.8 ± 1.1	1653.9 ± 1.1	1661.4 ± 1.1
m1 = 3.458	1120.32 ± 0.82	1115.48 ± 0.8	1110.11 ± 0.78	1671.7 ± 1.1	1680.4 ± 1.1	1685.7 ± 1.1
m1 = 4.201	1142.29 ± 0.91	1137.22 ± 0.89	1131.78 ± 0.87	1701.1 ± 1.1	1707.2 ± 1.1	1709.9 ± 1.1
m1 = 4.966	1163.55 ± 1	1158.26 ± 0.98	1152.83 ± 0.96	1729.1 ± 1.1	1732.7 ± 1.1	1733.4 ± 1.1
m1 = 6.561	1204.09 ± 1.2	1198.4 ± 1.1	1192.37 ± 1.1	1779.4 ± 1.2	1778.7 ± 1.2	1775.7 ± 1.2
m1 = 7.737	1230.99 ± 1.3	1225.05 ± 1.3	1218.87 ± 1.2	1811.1 ± 1.2	1807.6 ± 1.2	1802 ± 1.2
m1 = 8.551	1248.27 ± 1.4	1242.15 ± 1.3	1235.77 ± 1.3	1830.5 ± 1.2	1825.3 ± 1.2	1818.3 ± 1.2
m1 = 10.05	1277.62 ± 1.5	1271.22 ± 1.4	1264.6 ± 1.4	1862.1 ± 1.2	1854.1 ± 1.2	1844.6 ± 1.2
